One compound from patent US20130045939A1, “FATTY ACID MACROLIDE DERIVATIVES AND THEIR USES” (CATABASIS PHARMACEUTICALS, INC., priority 2010, published 2013) can be followed below.

The subject of this test is NF-κB. The test can be described thus: NF-κB luciferase reporter assay in LPS-stimulated RAW 264.7 macrophages. The class given is cell-based. Particulars: Mus musculus, RAW264.7; RAW 264.7 cells stably expressing 3× NFκB response element luciferase reporter; 2 hour pretreatment, 200 ng/ml LPS for 3 hours; 6 dose point titrations in triplicate. Here is the method:
RAW 264.7 cells stably expressing a 3× NFκB response element-drive luciferase reporter were seeded into 96 well plates in sera-free medium (Optimen) 18 hours prior to compound application. Compounds of the invention were prepared by first making 100 mM stock solutions in EtOH. Stock solutions were then diluted 1:100 in low LPS FBS (Gemini BenchMark 100-106), mixed vigorously and allowed to incubate at room temperature for 30 minutes. 1:2 serial dilutions were then made in FBS supplemented with 1% EtOH, mixed vigorously, and again allowed to incubate at room temperature for 30 minutes before adding to RAW 264.7 reporter cells (final concentrations: 10% FBS, 100 uM highest compound dilution, 0.1% EtOH) for a 2 hour pretreatment prior to stimulation with LPS. Cells were then stimulated with 200 ng/ml LPS or vehicle control for 3 hours in the presence of the compounds of the invention. A set of six vehicles was left unstimulated with LPS in order to measure the assay floor. […] After the 3 h incubation period with LPS, cell viability was measured by reading fluorescence (excitation 550 nm, emission 595 nm) with a Perkin Elmer Victor V plate reader. […] Luciferase activity was measured with the Perkin Elmer Victor V plate reader. NF-κB activity was expressed as a percent of the vehicle control wells (stimulated with LPS). […]

Each structure is given as a SMILES string. pIC50: −log10 of the molar value.

By pIC50 is commonly meant −log10 of the IC50, conventionally taken in molar units.

On to `CC/C=C\C/C=C\C/C=C\C/C=C\C/C=C\C/C=C\CCC(=O)N1C[C@H](C)C[C@@](C)(O)[C@H](O)[C@@H](C)[C@H](O)[C@@H](C)C(=O)O[C@H](CC)[C@@](C)(O)[C@H](O)[C@H]1C` [Ia-3, (2R,3S,4R,5R,8R,10R,11R,12S,13S,14R)-6-((4Z,7Z,10Z,13Z,16Z,19Z)-docosa-4,7,10,13,16,19-hexaenoyl)-2-ethyl-3,4,10,11,13-pentahydroxy-3,5,8,10,12,14-hexamethyl-1-oxa-6-azacyclopentadecan-15-one], for which the negative logarithm of the IC50 (pIC50) is 4.74.
